From patent US11702427B2 (priority 2018, dated 2023)
Where two headings read alike, the source gives them in different places.

Test system: HBsAg
Test: HBsAg assay: inhibition of HBsAg in HepG2.2.15 cells (CLIA immunoassay of supernatant)
Type: cell-based, hepatitis B virus (HBV)
Conditions: supernatant collected at day 6 after exposure, HBsAg chemiluminescence immunoassay
Protocol: Inhibition of HBsAg was determined in HepG2.2.15 cells. Cells were maintained in culture medium containing 10% fetal calf serum, […], Glutamine, penicillin/streptomycin. Cells were seeded in 96-well collagen-coated plate at a density of 30,000 cells/well. Serially diluted compounds were added to cells next day at the final DMSO concentration of 0.5%. Cells were incubated with compounds for 2-3 days, after which medium was removed. Fresh medium containing compounds was added to cells for additional 3-4 days. At day 6 after exposure of compounds, supernatant was collected, the HBsAg immunoassay (microplate-based chemiluminescence immunoassay kits, CLIA, Autobio Diagnosics Co., Zhengzhou, China, Catalog #CL0310-2) was used to determine the level of HBsAg according to manufactory instruction. Dose-response curves were generated and the EC50 value (effective concentrations that achieved 50% inhibitory effect) were determined using XLfit software. In addition, cells can be seeded at a density of 5,000 cells/well for determination of cell viability in the presence and absence of compounds by using CellTiter-Glo reagent (Promega). Tables 1-3 show EC50 values obtained by the HBsAg assay for selected compounds.

[1] = Hepatitis B virus, HepG2.2.15, 144 h, read-out: sAg EC50, HepG2.2.15 cells
[2] = read-out: sAg EC50, HepG2.2.15 cells

Row | SMILES | EC50 [1] | EC50 [2]
1 | COCCCOc1cc2c(nc1OCC(F)F)-c1[nH]c(=O)c(C(=O)O)c(O)c1C(C(C)C)C2 (stereo not shown) [Example 42, 9-(2,2-Difluoroethoxy)-4-hydroxy-5-isopropyl-8-(3-methoxypropoxy)-2-oxo-1,2,5,6-tetrahydro-10-phenanthroline-3-carboxylic acid] | 12 nM | 
2 | COCCCOc1cc2c(cc1OC)-c1[nH]c(=O)c(C(=O)O)c(O)c1C(C(C)C)C2 (stereo not shown) [Example 13, 4-Hydroxy-5-isopropyl-9-methoxy-8-(3-methoxypropoxy)-2-oxo-1,2,5,6-tetrahydrobenzo[h]quinoline-3-carboxylicacid] | 6 nM | 
3 | COCCCOc1cc2c(nc1OC)-c1nc(Cl)c(C(=O)O)c(Cl)c1C(C(C)(C)C)C2 (stereo not shown) [Example 68, 5-(tert-Butyl)-2,4-dichloro-9-methoxy-8-(3-methoxypropoxy)-5,6-dihydro-1,10-phenanthroline-3-carboxylicacid] | 10000 nM | 
4 | CCCc1nc2c(cc1OCCCOC)CC(C(C)C)c1c-2[nH]c(=O)c(C(=O)O)c1O (stereo not shown) [Example 50, 4-Hydroxy-5-isopropyl-8-(3-methoxypropoxy)-2-oxo-9-propyl-1,2,5,6-tetrahydro-1,10-phenanthroline-3-carboxylic acid] | 2 nM | 
5 | COCCCOc1cc2c(cc1C1CCOCC1)-c1[nH]c(=O)c(C(=O)O)c(O)c1[C@H](C(C)C)CO2 [Example 94, (S)-4-Hydroxy-5-isopropyl-9-(3-methoxypropoxy)-2-oxo-10-(tetrahydro-2H-pyran-4-yl)-1,2,5,6-tetrahydrobenzo[2,3]oxepino[4,5-b]pyridine-3-carboxylic acid] | 730 nM | 
6 | COCCCOc1cc2c(cc1Cl)-c1[nH]c(=O)c(C(=O)O)cc1C(C)(C(C)C)C2 (single isomer, unassigned) [Example 10, 9-Chloro-5-isopropyl-8-(3-methoxypropoxy)-5-methyl-2-oxo-1,6-dihydrobenzo[h]quinoline-3-carboxylic acid] |  | 25 nM
7 | COCCCOc1cc2c(nc1CCOC)-c1[nH]c(=O)c(C(=O)O)c(O)c1C(C(C)C)CO2 (stereo not shown) [Example 84, 8-Hydroxy-7-isopropyl-2-(2-methoxyethyl)-3-(3-methoxypropoxy)-10-oxo-6,7,10,11-tetrahydrooxepino[3,2-b:4,5-b′]dipyridine-9-carboxylic acid] | 1200 nM | 
8 | COCCCOc1cc2c(nc1C1CC1)-c1[nH]c(=O)c(C(=O)O)c(O)c1C(C(C)(C)C)CO2 (single isomer, unassigned) [Example 82, 7-(tert-Butyl)-2-cyclopropyl-8-hydroxy-3-(3-methoxypropoxy)-10-oxo-6,7,10,11-tetrahydrooxepino[3,2-b:4,5-b′]dipyridine-9-carboxylic acid] |  | 30000 nM
9 | COCCCOc1cc2c(cc1OC)-c1nc(Cl)c(C(=O)O)cc1C(C(C)C)C2 (stereo not shown) [Example 23, 2-Chloro-5-isopropyl-9-methoxy-8-(3-methoxypropoxy)-5,6-dihydrobenzo[h]quinoline-3-carboxylic acid] | 240 nM | 
10 | COCCCOc1cc2c(nc1OC)-c1[nH]c(=O)c(C(=O)O)c(O)c1C(C(C)(C)C)CO2 (single isomer, unassigned) [Example 86, 7-(tert-Butyl)-8-hydroxy-2-methoxy-3-(3-methoxypropoxy)-10-oxo-6,7,10,11-tetrahydrooxepino[3,2-b:4,5-b′]dipyridine-9-carboxylic acid] |  | 30000 nM
11 | CCOc1nc2c(cc1OCCCOC)CC(C(C)C)c1c-2[nH]c(=O)c(C(=O)O)c1O (single isomer, unassigned) [Example 40, 9-Ethoxy-4-hydroxy-5-isopropyl-8-(3-methoxypropoxy)-2-oxo-1,2,5,6-tetrahydro-1,10-phenanthroline-3-carboxylic acid] |  | 87 nM
12 | CCc1nc2c(cc1OCCCOC)OCC(C(C)(C)C)c1c-2[nH]c(=O)c(C(=O)O)c1O (single isomer, unassigned) [Example 80, 7-(tert-Butyl)-2-ethyl-8-hydroxy-3-(3-methoxypropoxy)-10-oxo-6,7,10,11-tetrahydrooxepino[3,2-b:4,5-b′]dipyridine-9-carboxylic acid] |  | 7000 nM
13 | COCCCOc1cc2c(nc1Cl)-c1[nH]c(=O)c(C(=O)O)c(O)c1C(C(C)C)C2 (single isomer, unassigned) [Example 27, 9-Chloro-4-hydroxy-5-isopropyl-8-(3-methoxypropoxy)-2-oxo-1,2,5,6-tetrahydro-1,10-phenanthroline-3-carboxylic acid] |  | 2 nM
14 | COCCCOc1cc2c(nc1C1CC1)-c1[nH]c(=O)c(C(=O)O)cc1C(C(C)C)C2 (stereo not shown) [Example 56, 9-Cyclopropyl-5-isopropyl-8-(3-methoxypropoxy)-2-oxo-1,2,5,6-tetrahydro-1,10-phenanthroline-3-carboxylicacid] | 1 nM | 
15 | COCCCOc1cc2c(cc1OC)-c1[nH]c(=O)c(C(=O)NO)c(O)c1C(C(C)C)C2 (stereo not shown) [Example 66, N,4-Dihydroxy-5-isopropyl-9-methoxy-8-(3-methoxypropoxy)-2-oxo-1,2,5,6-tetrahydrobenzo[h]quinoline-3-carboxamide] | 41 nM | 
16 | COCCCOc1cc2c(nc1C1CC1)-c1[nH]c(=O)c(C(=O)O)c(O)c1C(C(C)C)CO2 (stereo not shown) [Example 93, 2-Cyclopropyl-8-hydroxy-7-isopropyl-3-(3-methoxypropoxy)-10-oxo-6,7,10,11-tetrahydrooxepino[3,2-b:4,5-b′]dipyridine-9-carboxylic acid] | 120 nM | 
17 | COCCCOc1cc2c(cc1Cl)-c1[nH]c(=O)c(C(=O)O)c(O)c1C(C)(C(C)C)C2 (single isomer, unassigned) [Example 16, 9-Chloro-4-hydroxy-5-isopropyl-8-(3-methoxypropoxy)-5-methyl-2-oxo-1,2,5,6-tetrahydrobenzo[h]quinoline-3-carboxylic acid] |  | 2000 nM
18 | COCCCOc1cc2c(nc1NCCOC)-c1[nH]c(=O)c(C(=O)O)c(O)c1C(C(C)C)C2 (stereo not shown) [Example 51, 4-Hydroxy-5-isopropyl-9-((2-methoxyethyl)amino)-8-(3-methoxypropoxy)-2-oxo-1,2,5,6-tetrahydro-1,10-phenanthroline-3-carboxylicacid] | 10000 nM | 
19 | COCCCOc1cc2c(nc1Cl)-c1[nH]c(=O)c(C(=O)O)c(O)c1C(C(C)(C)C)C2 (stereo not shown) [Example 29, 5-(tert-Butyl)-9-chloro-4-hydroxy-8-(3-methoxypropoxy)-2-oxo-1,2,5,6-tetrahydro-1,10-phenanthroline-3-carboxylicacid] | 1 nM | 
20 | COCCCOc1cc2c(nc1N(C)C)-c1[nH]c(=O)c(C(=O)O)c(O)c1C(C(C)C)C2 (stereo not shown) [Example 54, 9-(Dimethylamino)-4-hydroxy-5-isopropyl-8-(3-methoxypropoxy)-2-oxo-1,2,5,6-tetrahydro-1,10-phenanthroline-3-carboxylicacid] | 10 nM | 
21 | COCCCOc1cc2c(nc1OC)-c1[nH]c(=O)c(C(=O)O)cc1C(C(C)C)C2 (single isomer, unassigned) [Example 44, 5-Isopropyl-9-methoxy-8-(3-methoxypropoxy)-2-oxo-1,2,5,6-tetrahydro-1,10-phenanthroline-3-carboxylic acid] |  | 2 nM
22 | COCCCOc1cc2c(cc1OC)-c1c(c(O)c(C(=O)O)c(=O)n1Cc1ccccc1)C(C(C)C)C2 (stereo not shown) [Example 18, 1-Benzyl-4-hydroxy-5-isopropyl-9-methoxy-8-(3-methoxypropoxy)-2-oxo-1,2,5,6-tetrahydrobenzo[h]quinoline-3-carboxylic acid] | 15000 nM | 
